Source: patent publication US8586611B2 (priority 2005, dated 2013)

Columns and labels:
Assay type in all cases: in vivo
[1] = test system: Pseudoperonospora cubensis; assay: Test A: cucumber downy mildew, spray the day before inoculation (disease rating, 100 = 100% disease control)
From the text: The test compounds were first dissolved in acetone in an amount equal to 3% of the final volume and then suspended at the desired concentration (in ppm) in acetone and purified water (50/50 mix by volume) containing 250 ppm of the surfactant Trem® 014 (polyhydric alcohol esters). The resulting test suspensions were then used in tests A-E. Spraying a 200 ppm test suspension to the point of run-off on the test plants was the equivalent of a rate of 500 g/ha.
The test suspension was sprayed to the point of run-off on cucumber seedlings. The following day the seedlings were inoculated with a spore suspension of Pseudoperonospora cubensis (the causal agent of cucumber downy mildew) and incubated in a saturated atmosphere at 20° C. for 24 h, and then moved to a growth chamber at 20° C. for 6 days, after which disease ratings were made.
Results for Tests A-F are given in Table A. In the table, a rating of 100 indicates 100% disease control and a rating of 0 indicates no disease control (relative to the controls). A dash (-) indicates no test results.

[2] = test system: Plasmopara viticola; assay: Test B: grape downy mildew, spray 24 h after inoculation (disease rating, 100 = 100% disease control)
In short: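 This is a curative spray test, applied 24 h after inoculation. Compounds in 50/50 acetone–water with 250 ppm Trem 014 surfactant were sprayed to run-off on P. viticola-infected seedlings, with 200 ppm equating to 500 g/ha. Plants were kept 5 days in a 20 °C growth chamber, then 24 h humid, and scored 0–100 for disease control relative to controls.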

[3] = test system: Phytophthora infestans; assay: whole plant or invertebrate; settings: tomato late blight
[4] = test system: Erysiphe graminis f. sp. tritici; assay: Test E: wheat powdery mildew, spray the day before inoculation (disease rating, 100 = 100% disease control)
In short: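 Protective test: spores of E. graminis f. sp. tritici dusted on wheat seedlings one day after run-off spraying of test suspension (acetone/water with 250 ppm surfactant; 200 ppm = 500 g/ha). Ratings after 7 days in growth chamber at 20° C, 100 = full control, 0 = none, relative to controls.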

[5] = spray the day before inoculation, compounds without asterisk (not 40 or 10 ppm)
[6] = spray 24 h after inoculation, compounds without asterisk (not 40 or 10 ppm)
[7] = sprayed the day before inoculation, unmarked compounds (no asterisk, not 40 or 10 ppm)
[8] = sprayed 24 h after inoculation, unmarked compounds (no asterisk, not 40 or 10 ppm)
[9] = sprayed the day before inoculation, 7 days at 20° C., unmarked compounds (no asterisk, not 40 or 10 ppm)

| Compound | Test A disease rating (100 = 100% disease control, 0 = no disease control) [1, 5] [%] | Test B disease rating (100 = 100% disease control, 0 = no disease control) [2, 6] [%] | Test C disease rating (100 = 100% disease control, 0 = no disease control) [3, 5] [%] | Test E disease rating (100 = 100% disease control, 0 = no disease control) [4, 5] [%] | Test A disease rating (100 = 100% disease control, 0 = no disease control) [1, 7] | Test B disease rating (100 = 100% disease control, 0 = no disease control) [2, 8] | Test C disease rating (100 = 100% disease control, 0 = no disease control) [3, 7] | Test E disease rating (100 = 100% disease control, 0 = no disease control) [4, 9] |
| --- | --- | --- | --- | --- | --- | --- | --- | --- |
| C[C@H](c1ccccc1)N(C)C(=O)c1csc(C2CCN(C(=O)Cc3ccc(Cl)cc3Cl)CC2)n1 [compound 6] | 0 | 28 | 0 | 41 |  |  |  |  |
| 2-[1-[(2,5-dimethylphenyl)acetyl]-4-piperidinyl]-N-methyl-N-[(1R)-1,2,3,4-tetrahydro-1-naphthalenyl]-4-oxazolecarboxamide [Compound 153] | 82 | 28 | 0 | 0 |  |  |  |  |
| 2-[1-[(2,5-dimethylphenyl)acetyl]-4-piperidinyl]-N-methyl-N-[(1R)-1-phenylpropyl]-4-thiazolecarboxamide [Compound 58] | 0 | 20 | 56 | 0 |  |  |  |  |
| CN(Cc1ccccc1)C(=O)c1csc(C2CCN(C(=O)Cc3ccccc3Cl)CC2)n1 [compound 161] | 0 | 14 | 15 | 42 |  |  |  |  |
| C[C@@H](NC(=O)c1csc(C2CCN(C(=O)Cc3cccc(C(F)(F)F)c3)CC2)n1)c1ccc(Br)cc1 [compound 270] |  |  |  |  | 0 | 0 | 0 | 0 |
| N-methyl-2-[1-[[5-methyl-3-(trifluoromethyl)-1H-pyrazol-1-yl]acetyl]-4-piperidinyl]-N-[(1R,4S)-1,2,3,4-tetrahydro-4-hydroxy-1-naphthalenyl]-4-thiazolecarboxamide [Compound 191] | 97 | 17 | 90 | 0 |  |  |  |  |
| 2-[4-[(2,5-dimethylphenyl)acetyl]-1-piperazinyl]-N-methyl-N-[(1R)-1-phenylethyl]-5-thiazolecarboxamide [Compound 74] | 0 | 14 | 0 | 21 |  |  |  |  |
| CC1CCN(C(=O)c2csc(C3CCN(C(=O)Cc4ccccc4Cl)CC3)n2)CC1 [compound 268] |  |  |  |  | 0 | 6 | 36 | 0 |
| O=C(Cc1ccccc1Cl)N1CCC(c2nc(C(=O)N3CCc4ccccc4C3)cs2)CC1 [compound 267] |  |  |  |  | 95 | 6 | 21 | 0 |
| 2-[1-[[5-chloro-3-(trifluoromethyl)-1H-pyrazol-1-yl]acetyl]-4-piperidinyl]-N-methyl-N-[(1R)-1,2,3,4-tetrahydro-1-naphthalenyl]-4-thiazolecarboxamide [Compound 249] | 0 | 0 | 0 | 0 |  |  |  |  |
| N-methyl-2-[4-[[5-methyl-3-(trifluoromethyl)-1H-pyrazol-1-yl]acetyl]-1-piperazinyl]-N-[(1R)-1,2,3,4-tetrahydro-1-naphthalenyl]-4-thiazolecarboxamide [Compound 220] | 0 | 0 | 0 | 0 |  |  |  |  |
| C[C@H](c1ccccc1)N(C)C(=O)c1csc(C2CCN(C(=O)Cc3cc(F)cc(F)c3)CC2)n1 [compound 37] | 85 | 23 | 80 | 87 |  |  |  |  |
| N-methyl-2-[1-[[5-methyl-3-(trifluoromethyl)-1H-pyrazol-1-yl]acetyl]-4-piperidinyl]-N-(1,2,3,4-tetrahydro-2-methyl-1-naphthalenyl)-4-thiazolecarboxamide [Compound 193] | 93 | 20 | 31 | 21 |  |  |  |  |
| N-methyl-2-[1-[[5-methyl-3-(trifluoromethyl)-1H-pyrazol-1-yl]acetyl]-4-piperidinyl]-N-(1,2,3,4-tetrahydro-1-naphthalenyl)-4-thiazolecarboxamide [Compound 188] | 90 | 6 | 29 | 86 |  |  |  |  |
| N-methyl-1-[1-[[5-methyl-3-(trifluoromethyl)-1H-pyrazol-1-yl]acetyl]-4-piperidinyl]-N-[(1R)-1,2,3,4-tetrahydro-1-naphthalenyl]-1H-pyrazole-4-carboxamide [Compound 233] | 96 | 51 | 91 | 29 |  |  |  |  |
| C[C@H](c1ccccc1)N(C)C(=O)c1csc(C2CCN(C(=O)Cc3ccc(F)c(C(F)(F)F)c3)CC2)n1 [compound 34] | 85 | 48 | 31 | 0 |  |  |  |  |
| C[C@H](c1ccccc1)N(C)C(=O)c1csc(C2CCN(C(=O)Cc3cccc(S(C)(=O)=O)c3)CC2)n1 [compound 31] | 0 | 0 | 0 | 0 |  |  |  |  |
| C[C@H](c1ccccc1)N(C)C(=O)c1csc(C2CCN(C(=O)Nc3cccc(C(F)(F)F)c3)CC2)n1 [compound 155] | 100 | 41 | 31 | 0 |  |  |  |  |
| C[C@H](c1ccccc1)N(C)C(=O)c1csc(C2CCN(C(=O)Cc3cccc(C(F)(F)F)c3F)CC2)n1 [compound 42] | 99 | 31 | 100 | 21 |  |  |  |  |
